Results as given in PubChem BioAssay AID463235 (The Scripps Research Institute Molecular Screening Center, 2010).
Active and inactive are the calls of the source. No rule for the calls is given here.

Assay: HCV RNA replicon replication inhibition, late-stage follow-up, HCV NS3 helicase inhibitor project, cell-based, luminescence (AID 463235)
Details: HCV replicon cells, RNA blot hybridization, 3 days; for IC90: measured here: 90% replicon inhibition

With Cc1ccc(C(=O)C2=C(O)C(=O)N(Cc3ccco3)C2c2cccc(Cl)c2)o1 (centres undefined) the IC50 was > 10 µM (inactive) and the IC90 was over 10 µM.
In the case of CCCCCOc1ccc(C2C(C(=O)c3ccc(C)o3)=C(O)C(=O)N2c2cc(C)on2)cc1 (centres undefined), the IC50 is reported as > 10 µM (inactive) and the IC90 is reported as over 10 µM.
In the case of COc1ccc(C=NNC(=O)c2cc(O)c(O)c(O)c2)cc1COc1ccc(C(=O)OCC(C)C)cc1, the IC50 is reported as > 10 µM (inactive) and the IC90 is reported as over 10 µM.
For COc1cc(C2C(C(=O)c3ccc(C)o3)=C(O)C(=O)N2c2cc(C)on2)ccc1OCc1ccccc1 (centres undefined), the IC50 was > 10 µM (inactive) and the IC90 was over 10 µM.
With CCOc1cccc(C2C(C(=O)c3ccc(C)o3)=C(O)C(=O)N2Cc2ccccc2)c1 (centres undefined) the IC50 was > 10 µM (inactive) and the IC90 was over 10 µM.
For COc1cccc(-n2c(SCc3cc(=O)oc4cc(O)c(O)cc34)nc3ccccc3c2=O)c1, the IC50 was > 10 µM (inactive) and the IC90 was over 10 µM.
In the case of Cc1cc(N2C(=O)C(O)=C(C(=O)c3ccc(C)o3)C2c2ccc(OCc3ccccc3)cc2)no1 (centres undefined), the IC50 is reported as > 10 µM (inactive) and the IC90 is reported as over 10 µM.
